This is an account of results in patent US20230129364A1, “PYRROLIDINE DERIVATIVE, AND PHARMACEUTICAL COMPOSITION FOR PREVENTING OR TREATING BETA-AMYLOID OR TAU PROTEIN-ASSOCIATED DISEASES CONTAINING SAME” (YONSEI UNIVERSITY, UNIVERSITY - INDUSTRY FOUNDATION (UIF), priority 2019, published 2023).

What all share (type): biochemical
Assay [1] addresses T1, Tau protein (wild-type K18) (Homo sapiens, UniProt P10636).
T1 construct: Tau protein (wild-type K18)
Put plainly: Tau protein aggregation inhibition test (thioflavin T assay). The following applies: heparin/DTT-induced aggregation, 37° C. 5 days, ThT fluorescence vs tau-only control = 100%. On the procedure:
Tau protein (wild-type K18) was dissolved in phosphate-buffered saline (PBS, pH 7.4) at a concentration of 1 mg/mL to prepare a tau protein solution. In order to induce aggregation of tau proteins, 0.1 mg/mL of heparin and 100 μM dithiothreitol (DTT) were added to 1 mg/mL of the tau protein solution, followed by incubation at 37° C. for 5 days. At this time, the result was mixed with each test compound (50, 500 μM) such that the final concentration reached 0.5 mg/mL, followed by further incubation.
The inhibitory effect of each compound against tau aggregation was measured based on the intensity of fluorescence by thioflavin T (ThT) assay (see Example 2). More specifically, 25 μL of the reaction solution was charged in each well of a 96-well plate for fluorescence analysis, and 75 μL of the prepared thioflavin-T solution was then charged in each well. The reaction was allowed to proceed at room temperature in a dark laboratory for 5 minutes, and then fluorescence values were measured at an excitation wavelength of 450 nm and an emission wavelength of 485 nm using a multi-mode microplate reader.
The ratio of the fluorescence value measured in the group obtained by treating with each test compound to 100% of the fluorescence value of the group (control group) obtained by treating only with tau proteins and inducing aggregation for 5 days is set forth in Table 5 below: […]

Assay [2] concerns the target T2, aggregated beta-amyloid; human Aβ 1-42 (UniProtKB-P05067, a.a. 672-713) (Homo sapiens, UniProt P05067).
T2 construct: UniProtKB-P05067, a.a; 672-713
In words: Beta-amyloid aggregate degradation test (thioflavin T assay). The settings on record: pre-aggregated Aβ, further 3 days at 37° C., ThT fluorescence vs control = 100%. On the procedure: Aβ (beta-amyloid; human A3 1-42 monomer (UniProtKB-P05067, a.a. 672-713)) was dissolved at a concentration of 10 mM in dimethyl sulfoxide (DMSO), and the resulting solution was diluted to 250 μM using distilled water, and then incubated at 37° C. for 3 days to induce aggregation. The aggregated beta-amyloid was added with each test compound in an amount of 50 or 500 μM such that the final concentration reached 25 μM, and was further cultured at 37° C. for 3 days to induce reaction. The aggregate degradation effect of each test compound was measured by thioflavin T (ThT) assay (see Example 2). Specifically, 25 μL of the reaction solution was charged in each well of a 96-well plate for fluorescence analysis and 75 μL of the prepared thioflavin-T solution was charged in each well. The reaction was allowed to proceed at room temperature in a dark laboratory for 5 minutes and then fluorescence values were measured at an excitation wavelength of 450 nm and an emission wavelength of 485 nm using a multi-mode microplate reader. The ratio of the fluorescence value measured in the group obtained by treating with each test compound to 100% of the fluorescence value of the group (control group) obtained by treating only with beta-amyloids and inducing aggregation for 3 days is set forth in Table 4 below: […]

Assay [3] concerns the target T3, aggregated tau protein (wild-type K18) (Homo sapiens, UniProt P10636).
T3 construct: Tau protein (wild-type K18)
Put plainly: Tau protein aggregate degradation test (thioflavin T assay). The following applies: pre-aggregated tau, further 5 days at 37° C., ThT fluorescence vs control = 100%. On the procedure: Tau protein (wild-type K18) was dissolved in phosphate-buffered saline (PBS, pH 7.4) at a concentration of 1 mg/mL to prepare a tau protein solution. 0.1 mg/mL of heparin and 100 μM dithiothreitol (DTT) were added to 1 mg/mL of the tau protein solution, followed by incubation at 37° C. for 5 days to induce tau protein aggregation. The aggregated tau protein was mixed with each test compound in an amount of 50 or 500 μM such that the final concentration reached 0.5 mg/mL, followed by further incubation at 37° C. for 5 days to induce reaction.
The degradation effect of each compound on the tau aggregates was measured by thioflavin T (ThT) assay (see Example 2). More specifically, 25 μL of the reaction solution was charged in each well of a 96-well plate for fluorescence analysis and 75 μL of the prepared thioflavin-T solution was charged in each well. The reaction was allowed to proceed at room temperature in a dark laboratory for 5 minutes and then fluorescence values were measured at an excitation wavelength of 450 nm and an emission wavelength of 485 nm using a multi-mode microplate reader.
The ratio of the fluorescence value measured in the group obtained by treating with each test compound to 100% of the fluorescence value of the group (control group) obtained by treating only with tau proteins and inducing aggregation for 5 days is set forth in Table 6 below: […]

T1 sequence (P10636 561-685 limits assumed): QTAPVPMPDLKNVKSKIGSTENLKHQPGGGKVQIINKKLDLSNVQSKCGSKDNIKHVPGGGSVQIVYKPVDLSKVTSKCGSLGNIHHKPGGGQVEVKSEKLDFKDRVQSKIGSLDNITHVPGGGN
T3 sequence (P10636 561-685 limits assumed): as above
T2 sequence (P05067 672-713): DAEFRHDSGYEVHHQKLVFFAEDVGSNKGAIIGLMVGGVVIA

For `CCN1C(=O)/C(=C/c2c[nH]c3ccccc23)NC1=S` [DN204811, (Z)-5-((1H-indol-3-yl)methylene)-3-ethyl-2-thioxoimidazolidin-4-one], the entries for the “Tau aggregation remaining (ThT fluorescence, % of tau-only control)” value in assay [1] (50 uM test compound) and in assay [1] (500 uM test compound) were 43.22 % of control and 40.21 % of control, respectively. The entries for the “Beta-amyloid aggregate degradation activity (% of control)” value in assay [2] (50 uM test compound) and in assay [2] (500 uM test compound) were 74.64 % of control and 28.97 % of control, respectively. Besides, the “ThT fluorescence remaining (% of control)” value was 50.44 % of control in assay [3] (50 uM test compound) and 31.04 % of control in assay [3] (500 uM test compound).

For `O=C1NC(=S)S/C1=C\c1ccoc1` [DN204298, (Z)-5-(furan-3-ylmethylene)-2-thioxothiazolidin-4-one], the entries for the “Tau aggregation remaining (ThT fluorescence, % of tau-only control)” value in assay [1] (50 uM test compound) and in assay [1] (500 uM test compound) were 71.163 % of control and 33.817 % of control, respectively. Besides, the “Beta-amyloid aggregate degradation activity (% of control)” value in assay [2] (50 uM test compound) is recorded as 59.37 % of control; in assay [2] (500 uM test compound), 7.79 % of control. The entries for the “ThT fluorescence remaining (% of control)” value in assay [3] (50 uM test compound) and in assay [3] (500 uM test compound) were 61.36 % of control and 29.73 % of control, respectively.

`CCN1C(=O)/C(=C/c2c[nH]c3ccncc23)SC1=S` [DN205780, (Z)-5-((1H-pyrrolo[3,2-c]pyridin-3-yl)methylene)-3-ethyl-2-thioxothiazolidin-4-one]: the “Tau aggregation remaining (ThT fluorescence, % of tau-only control)” value in assay [1] (50 uM test compound) was 69.83 % of control; in assay [1] (500 uM test compound), 33.02 % of control. Further, the results for the “Beta-amyloid aggregate degradation activity (% of control)” value in assay [2] (50 uM test compound) and in assay [2] (500 uM test compound) were 51.31 % of control and 35.73 % of control, respectively. Also, the entries for the “ThT fluorescence remaining (% of control)” value in assay [3] (50 uM test compound) and in assay [3] (500 uM test compound) were 27.50 % of control and 10.84 % of control, respectively.

Consider `O=C1NC(=S)S/C1=C\c1ccsc1` [DN204299, (Z)-5-(thiophen-3-ylmethylene)-2-thioxothiazolidin-4-one], for which the “Tau aggregation remaining (ThT fluorescence, % of tau-only control)” value in assay [1] (50 uM test compound) is listed as 60.521 % of control; in assay [1] (500 uM test compound), 33.932 % of control. Moreover, the “Beta-amyloid aggregate degradation activity (% of control)” value in assay [2] (500 uM test compound) is listed as 80.07 % of control. Besides, the figures for the “ThT fluorescence remaining (% of control)” value in assay [3] (50 uM test compound) and in assay [3] (500 uM test compound) were 72.21 % of control and 45.09 % of control, respectively.

`CN1C(=O)N/C(=C\c2c[nH]c3cccnc23)C1=O` [DN204673, (Z)-5-((1H-pyrrolo[3,2-b]pyridin-3-yl)methylene)-3-methylimidazolidine-2,4-dione]: the “Tau aggregation remaining (ThT fluorescence, % of tau-only control)” value in assay [1] (500 uM test compound) is on record as 55.87 % of control. Further, the “Beta-amyloid aggregate degradation activity (% of control)” value in assay [2] (50 uM test compound) is 86.89 % of control; in assay [2] (500 uM test compound), 30.52 % of control.

Regarding `CCN1C(=O)/C(=C/c2c[nH]c3ncccc23)NC1=S` [DN204816, (Z)-5-((1H-pyrrolo[2,3-b]pyridin-3-yl)methylene)-3-ethyl-2-thioxoimidazolidin-4-one], the “Tau aggregation remaining (ThT fluorescence, % of tau-only control)” value is 81.42 % of control in assay [1] (50 uM test compound) and 56.3 % of control in assay [1] (500 uM test compound). Also, in assay [2] (500 uM test compound), the “Beta-amyloid aggregate degradation activity (% of control)” value is 92.41 % of control. Besides, the “ThT fluorescence remaining (% of control)” value in assay [3] (50 uM test compound) is on record as 40.39 % of control; in assay [3] (500 uM test compound), 33.92 % of control.

Consider `O=C1NC(=S)S/C1=C\c1c[nH]c2ccccc12` [DN204296, (Z)-5-((1H-indol-3-yl)methylene)-2-thioxothiazolidin-4-one], for which the “Tau aggregation remaining (ThT fluorescence, % of tau-only control)” value in assay [1] (50 uM test compound) was 13.243 % of control; in assay [1] (500 uM test compound) it was 4.984 % of control. Further, the figures for the “Beta-amyloid aggregate degradation activity (% of control)” value in assay [2] (50 uM test compound) and in assay [2] (500 uM test compound) were 68.90 % of control and 17.28 % of control, respectively. Also, the “ThT fluorescence remaining (% of control)” value was 30.26 % of control in assay [3] (50 uM test compound) and 16.48 % of control in assay [3] (500 uM test compound).

For `O=C1NC(=O)/C(=C/c2c[nH]c3cccnc23)S1` [DN204289, (Z)-5-((1H-pyrrolo[3,2-b]pyridin-3-yl)methylene)thiazolidine-2,4-dione], the “Tau aggregation remaining (ThT fluorescence, % of tau-only control)” value in assay [1] (50 uM test compound) was 60.71 % of control; in assay [1] (500 uM test compound) it was 46.16 % of control. Moreover, the “Beta-amyloid aggregate degradation activity (% of control)” value in assay [2] (50 uM test compound) was 83.66 % of control; in assay [2] (500 uM test compound), 54.07 % of control. The results for the “ThT fluorescence remaining (% of control)” value in assay [3] (50 uM test compound) and in assay [3] (500 uM test compound) were 57.57 % of control and 52.83 % of control, respectively.

With `CCN1C(=O)/C(=C/c2ccoc2)NC1=S` [DN204814, (Z)-3-ethyl-5-(furan-3-ylmethylene)-2-thioxoimidazolidin-4-one], the “Tau aggregation remaining (ThT fluorescence, % of tau-only control)” value in assay [1] (500 uM test compound) is reported as 28.47 % of control. Moreover, the results for the “Beta-amyloid aggregate degradation activity (% of control)” value in assay [2] (50 uM test compound) and in assay [2] (500 uM test compound) were 58.02 % of control and −40.60 % of control, respectively. Moreover, the results for the “ThT fluorescence remaining (% of control)” value in assay [3] (50 uM test compound) and in assay [3] (500 uM test compound) were 30.07 % of control and −22.72 % of control, respectively.

On to `O=C1NC(=O)C(Cc2cnc3ccccc3c2)S1` (centres unmarked) [DN204294, 5-(quinolin-3-ylmethyl)thiazolidine-2,4-dione], for which, in assay [1] (50 uM test compound), the “Tau aggregation remaining (ThT fluorescence, % of tau-only control)” value is 85.91 % of control. Further, the entries for the “Beta-amyloid aggregate degradation activity (% of control)” value in assay [2] (50 uM test compound) and in assay [2] (500 uM test compound) were 88.64 % of control and 74.80 % of control, respectively.

Regarding `O=C1NC(=S)S/C1=C\c1c[nH]c2cccnc12` [DN204808, (Z)-5-((1H-pyrrolo[3,2-b]pyridin-3-yl)methylene)-2-thioxothiazolidin-4-one], the entries for the “Tau aggregation remaining (ThT fluorescence, % of tau-only control)” value in assay [1] (50 uM test compound) and in assay [1] (500 uM test compound) were 27.48 % of control and 16.09 % of control, respectively. For the same compound, the “Beta-amyloid aggregate degradation activity (% of control)” value in assay [2] (500 uM test compound) was 73.30 % of control. Further, the “ThT fluorescence remaining (% of control)” value was 62.2 % of control in assay [3] (50 uM test compound) and 41.11 % of control in assay [3] (500 uM test compound).

Regarding `O=C1NC(=O)/C(=C/c2c[nH]c3ncccc23)S1` [DN204286, (Z)-5-((1H-pyrrolo[2,3-b]pyridin-3-yl)methylene)thiazolidine-2,4-dione], the “Tau aggregation remaining (ThT fluorescence, % of tau-only control)” value in assay [1] (50 uM test compound) is listed as 56.04 % of control; in assay [1] (500 uM test compound), 82.71 % of control. Moreover, in assay [2] (500 uM test compound), the “Beta-amyloid aggregate degradation activity (% of control)” value was 94.23 % of control.

With `O=C1NC(=S)S/C1=C\c1c[nH]c2ccncc12` [DN204807, (Z)-5-((1H-pyrrolo[3,2-c]pyridin-3-yl)methylene)-2-thioxothiazolidin-4-one], the figures for the “Tau aggregation remaining (ThT fluorescence, % of tau-only control)” value in assay [1] (50 uM test compound) and in assay [1] (500 uM test compound) were 93.56 % of control and 74.24 % of control, respectively. Besides, the “Beta-amyloid aggregate degradation activity (% of control)” value in assay [2] (500 uM test compound) is reported as 53.56 % of control.
